Changes are numbered by the printed parent chain. Where two headings read alike, the source gives them in different places. Values belong to the molecule of their own block, whether it stands above or below them.
Legend:
[1] = molecular target: T1, hAR (human androgen receptor) (Homo sapiens, UniProt P10275); assay: Competitive hAR binding assay with 3H-DHT tracer
T1 construct: made in house; host or cells: baculovirus/Sf9 insect cells (crude extract)
T1 sequence (P10275 1-920): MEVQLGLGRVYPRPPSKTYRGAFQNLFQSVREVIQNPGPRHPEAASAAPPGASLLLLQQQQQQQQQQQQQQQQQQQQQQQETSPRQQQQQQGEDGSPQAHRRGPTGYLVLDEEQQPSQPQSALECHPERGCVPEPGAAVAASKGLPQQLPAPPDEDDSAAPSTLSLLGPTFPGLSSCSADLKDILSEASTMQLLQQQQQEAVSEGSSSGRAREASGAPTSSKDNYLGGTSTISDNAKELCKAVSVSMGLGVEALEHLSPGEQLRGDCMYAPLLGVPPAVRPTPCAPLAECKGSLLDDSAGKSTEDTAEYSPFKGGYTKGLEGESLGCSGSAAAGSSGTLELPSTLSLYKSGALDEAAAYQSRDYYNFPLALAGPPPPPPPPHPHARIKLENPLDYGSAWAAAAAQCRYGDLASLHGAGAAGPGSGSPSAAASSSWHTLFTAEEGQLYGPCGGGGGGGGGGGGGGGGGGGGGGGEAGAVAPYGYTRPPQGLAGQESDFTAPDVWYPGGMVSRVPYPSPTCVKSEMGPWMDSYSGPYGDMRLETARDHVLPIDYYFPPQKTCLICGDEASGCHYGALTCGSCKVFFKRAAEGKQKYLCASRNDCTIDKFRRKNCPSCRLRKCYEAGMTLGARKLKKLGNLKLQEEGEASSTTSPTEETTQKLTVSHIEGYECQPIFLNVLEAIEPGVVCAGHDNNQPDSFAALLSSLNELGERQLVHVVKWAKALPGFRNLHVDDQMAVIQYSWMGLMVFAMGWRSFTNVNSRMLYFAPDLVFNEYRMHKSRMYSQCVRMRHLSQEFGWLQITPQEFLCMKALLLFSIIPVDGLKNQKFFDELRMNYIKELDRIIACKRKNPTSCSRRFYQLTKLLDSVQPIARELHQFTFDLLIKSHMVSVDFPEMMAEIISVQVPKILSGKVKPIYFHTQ
Experimental: The description below describes how the assay was carried out.
Competitive binding analysis was performed on baculovirus/Sf9 generated hAR extracts in the presence or absence of different concentrations of test agent and a fixed concentration of ^3H-dihydrotestosterone (3H-DHT) as tracer. […] Subsequently, the binding reactions are washed three times to completely remove excess unbound ^3H-DHT. hAR bound ^3H-DHT levels are determined in the presence of compounds (i.e. competitive binding) and compared to levels bound when no competitor is present (i.e. maximum binding). Compound binding affinity to the hAR is expressed as the concentration of compound at which one half of the maximum binding is inhibited.

[2] = molecular target: T2, androgen receptor in MDA-MB453-MMTV clone 54-19 cells (Homo sapiens, UniProt P10275); assay: AR antagonist cell assay (MMTV-luciferase reporter); assay type: cell-based
T2 sequence (P10275 1-920 Q868H): T1 sequence (P10275 1-920) with Q868H
Experimental: The compounds ability to antagonize the effects of androgen on the androgen receptor were determined in a whole cell assay as described immediately below.
This cell line is a stable transfected cell line with MDA-MB453 cell background (a human breast tumor cell line expressing androgen receptor). A MMTV minimal promoter containing ARE was first cloned in front of a firefly luciferase reporter gene. Then the cascade was cloned into transfection vector pUV120puro. […] Puromycin resistant stable cell line was selected.
Plating medium: DMEM (phenol red free), 10% charcoal treated HyClone serum, 1% L-glutamine
Assay medium: DMEM (phenol red free), 1% charcoal treated HyClone serum, 1% L-glutamine, and 1% penicillin/streptomycin
Assay procedure: • 1. Cells are maintained in culture medium, splitting cells when they reach 80-90% confluence • 2. To test compounds, 10,000 cells/well are plated to opaque 96 cell culture plate in 100 ul/well plating medium, culture for overnight at 37° C. in cell culture incubator • 3. […] Add 10 ul/well freshly prepared DHT (final concentration at […]) to each well, incubate at 37° C. for 17 hr (overnight) • 5.
The results are reported as the mean of multiple tests as described below (the numbers of tests are indicated in the footnote). N.D. denotes that the compound was not tested.

[3] = baculovirus/Sf9 hAR extract, 1 nM 3H-DHT, one hour at 4° C, mean of multiple tests, read-out: AR Binding IC50
[4] = read-out: AR Cell IC50; MDA-MB453-MMTV clone 54-19, inhibition of DHT induced luciferase, 17 hr; mean of multiple tests
[5] = MDA-MB453-MMTV clone 54-19, inhibition of DHT induced luciferase, 17 hr; mean of multiple tests; read-out: AR Cell IC50

SMILES: COc1cccc(OC)c1Oc1ccc(C#N)cc1Cl [Example 26, 3-Chloro-4-(2,6-dimethoxy-phenoxy)-benzonitrile]
- IC50 [1, 3]: 106 nM
- IC50 [2, 4]: 54 nM

SMILES: CC(O)c1cc(F)ccc1Oc1ccc(C#N)c(C(F)(F)F)c1 (stereo not shown) [Example 119, 4-[4-Fluoro-2-(1-hydroxy-ethyl)-phenoxy]-2-trifluoromethyl-benzonitrile]
- IC50 [1, 3]: 279 nM
- IC50 [2, 5]: 458 nM

SMILES: N#CCCc1ccc(Oc2ccc(C#N)c(Cl)c2)cc1 [Example 46, 2-Chloro-4-[4-(2-cyano-ethyl)-phenoxy]-benzonitrile]
- IC50 [1, 3]: 304 nM
- IC50 [2, 5]: 197 nM

SMILES: CC(C)Oc1ccccc1Oc1ccc(C#N)c(C(F)(F)F)c1 [Example 110, 4-(2-Isopropoxy-phenoxy)-2-trifluoromethyl-benzonitrile]
- IC50 [1, 3]: 218 nM
- IC50 [2, 5]: 206 nM

SMILES: CSc1ccccc1Oc1ccc(C#N)c(Cl)c1 [Example 3, 2-Chloro-4-(2-methylsulfanyl-phenoxy)-benzonitrile]
- IC50 [1]: 47 nM
- IC50 [2, 4]: < 0.32 nM

SMILES: N#Cc1ccc(Oc2ccccc2C(N)=O)cc1Cl [Example 8, 2-(3-Chloro-4-cyano-phenoxy)-benzamide]
- IC50 [1, 3]: 222 nM
- IC50 [2, 5]: > 1000 nM

SMILES: Cc1cc(C)c(Oc2ccc(C#N)c(Cl)c2)c(C)c1 [Example 50, 2-Chloro-4-(2,4,6-trimethyl-phenoxy)-benzonitrile]
- IC50 [1]: 22 nM
- IC50 [2, 5]: 214 nM

SMILES: N#Cc1ccc(Oc2ccccc2C#N)cc1Cl [Example 65, 2-Chloro-(2-cyano-phenoxy)-benzonitrile]
- IC50 [1]: 14 nM
- IC50 [2, 4]: 0.32 nM

SMILES: N#Cc1ccc(Oc2c(F)cccc2F)cc1C(F)(F)F [Example 121, 4-(2,6-Difluoro-phenoxy)-2-trifluoromethyl-benzonitrile]
- IC50 [1]: 63 nM
- IC50 [2, 4]: 17 nM

SMILES: Cc1ccc(Oc2ccc(C#N)c(Cl)c2)c(C)c1 [Example 45, 2-Chloro-4-(2,4-dimethyl-phenoxy)-benzonitrile]
- IC50 [1]: 25 nM
- IC50 [2, 5]: 721 nM

SMILES: COc1ccccc1Oc1ccc(C#N)cc1Cl [Example 10, 3-Chloro-4-(2-methoxy-phenoxy)-benzonitrile]
- IC50 [1]: 29 nM
- IC50 [2, 5]: 319 nM

SMILES: Cc1cc(C)c(Oc2ccc(C#N)cc2Cl)c(C)c1 [Example 15, 3-Chloro-(2,4,6-trimethyl-phenoxy)-benzonitrile]
- IC50 [1]: 16 nM
- IC50 [2, 5]: > 1000 nM

SMILES: CCc1ccccc1Oc1ccc(C#N)c(Cl)c1 [Example 35, 2-Chloro-4-(2-ethyl-phenoxy)-benzonitrile]
- IC50 [1]: 20 nM
- IC50 [2, 5]: 360 nM

SMILES: C=CCc1ccccc1Oc1ccc(C#N)c(C(F)(F)F)c1 [Example 105, 4-(2-Allyl-phenoxy)-2-trifluoromethyl-benzonitrile]
- IC50 [1]: 82 nM
- IC50 [2, 5]: > 1000 nM

- IC50 [1, 3]: 42 nM
- IC50 [2, 5]: 869 nM
SMILES: CCOc1cc(C)ccc1Oc1ccc(C#N)cc1Cl [Example 30, 3-Chloro-4-(2-ethoxy-4-methyl-phenoxy)-benzonitrile]

SMILES: COc1cccc(Oc2ccc(C#N)c(Cl)c2)c1 [Example 37, 2-Chloro-4-(3-methoxy-phenoxy)-benzonitrile]
- IC50 [1, 3]: 114 nM
- IC50 [2, 5]: 139 nM

- IC50 [1, 3]: 53 nM
- IC50 [2, 5]: 26 nM
SMILES: COc1cc(Oc2ccccc2C)ccc1C#N [Example 117, 2-Methoxy-4-o-tolyloxy-benzonitrile]

SMILES: N#Cc1ccc(Oc2cccc3c2CCCC3)cc1Cl [Example 32, 2-Chloro-4-(5,6,7,8-tetrahydro-naphthalen-1-yloxy)-benzonitrile]
- IC50 [1]: 94 nM
- IC50 [2, 5]: 473 nM

SMILES: COc1cccc(Oc2ccc(C#N)c(Cl)c2)c1OC [Example 54, 2-Chloro-4-(2,3-dimethoxy-phenoxy)-benzonitrile]
- IC50 [1, 3]: 157 nM
- IC50 [2, 4]: 26 nM

SMILES: N#Cc1ccc(Oc2cccc3ccccc23)cc1C(F)(F)F [Example 97, 4-(Naphthalen-1-yloxy)-2-trifluoromethyl-benzonitrile]
- IC50 [1]: 100 nM
- IC50 [2, 5]: 554 nM

SMILES: N#Cc1ccc(Oc2ccccc2C(F)(F)F)cc1Cl [Example 64, 4-(2-Trifluoromethyl-phenoxy)-2-chloro-benzonitrile]
- IC50 [1]: 34 nM
- IC50 [2, 5]: 842 nM

SMILES: COc1c(O)cccc1Oc1ccc(C#N)c(C(F)(F)F)c1 [Example 116, 4-(3-Hydroxy-2-methoxy-phenoxy)-2-trifluoromethyl-benzonitrile]
- IC50 [1]: 30 nM
- IC50 [2, 4]: 3 nM

SMILES: Cc1ccc(C)c(Oc2ccc(C#N)c(Cl)c2)c1 [Example 68, 2-Chloro-4-(2,5-dimethyl-phenoxy)-benzonitrile]
- IC50 [1]: 69 nM
- IC50 [2, 5]: > 1000 nM

SMILES: CC(=O)c1c(O)cccc1Oc1ccc(C#N)c(C(F)(F)F)c1 [Example 85, 4-(2-Acetyl-3-hydroxy-phenoxy)-2-trifluoromethyl-benzonitrile]
- IC50 [1, 3]: 111 nM
- IC50 [2, 4]: 4 nM

SMILES: N#Cc1ccc(Oc2ccccc2C(F)(F)F)cc1C(F)(F)F [Example 108, 2-Trifluoromethyl-4-(2-trifluoromethyl-phenoxy)-benzonitrile]
- IC50 [1]: 57 nM
- IC50 [2, 5]: > 1000 nM

SMILES: N#Cc1ccc(Oc2ccc(C#N)c(Cl)c2)cc1 [Example 67, 2-Chloro-(4-cyano-phenoxy)-benzonitrile]
- IC50 [1, 3]: 230 nM
- IC50 [2, 5]: 340 nM

SMILES: COc1ccc(Oc2ccc(C#N)c(C(F)(F)F)c2)c(C(C)=O)c1 [Example 90, 4-(2-Acetyl-4-methoxy-phenoxy)-2-trifluoromethyl-benzonitrile]
- IC50 [1, 3]: 204 nM
- IC50 [2, 5]: 477 nM

SMILES: CC(C)c1ccccc1Oc1ccc(C#N)c(Cl)c1 [Example 39, 2-Chloro-4-(2-isopropyl-phenoxy)-benzonitrile]
- IC50 [1]: 43 nM
- IC50 [2, 5]: 254 nM

SMILES: COc1cc(C)ccc1Oc1ccc(C#N)c(Cl)c1 [Example 47, 2-Chloro-4-(2-methoxy-4-methyl-phenoxy)-benzonitrile]
- IC50 [1]: 4 nM
- IC50 [2, 5]: > 1000 nM
